Values joined by “and” are separate entries in the source; they are usually repeats but may differ in a detail not shown here. Equal entries are not always repeated. Toxic doses and inconclusive results are not listed. Rule for the calls: active = survival T/C of 150% or more; inactive = T/C below 125% in these data.
System: P388 leukemia ip, CD2F1 mice, survival T/C
Experiment: NCI In Vivo Anticancer Drug Screen. Data for tumor model P388 Leukemia (intraperitoneal) in CD2F1 (CDF1) mice
Details: endpoint: median survival time, higher = longer survival
Procedure, shortened: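 Mice carrying the transplanted tumor received test compound or vehicle. Survival was recorded in each group, and the value is the treated-group measurement divided by that of the vehicle-treated control group.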

[1] = dose: 12.5 mg/kg/injection, schedule: Q01DX009 (ip), vehicle: saline with Tween-80
[2] = dose: 25.0 mg/kg/injection, schedule: Q01DX009 (ip), vehicle: saline with Tween-80
[3] = dose: 50.0 mg/kg/injection, schedule: Q01DX009 (ip), vehicle: saline with Tween-80
[4] = dose: 100.0 mg/kg/injection, schedule: Q01DX009 (ip), vehicle: saline with Tween-80
[5] = dose: 200.0 mg/kg/injection, schedule: Q01DX009 (ip), vehicle: saline with Tween-80
[6] = dose: 50.0 mg/kg/injection, schedule: Q01DX005 (ip), vehicle: Klucel (hydroxypropylcellulose) (HPC)
[7] = dose: 100.0 mg/kg/injection, schedule: Q01DX005 (ip), vehicle: Klucel (hydroxypropylcellulose) (HPC)
[8] = dose: 200.0 mg/kg/injection, schedule: Q01DX005 (ip), vehicle: Klucel (hydroxypropylcellulose) (HPC)
[9] = dose: 100.0 mg/kg/injection, schedule: Q04DX002 (ip), vehicle: Klucel (hydroxypropylcellulose) (HPC)
[10] = dose: 200.0 mg/kg/injection, schedule: Q04DX002 (ip), vehicle: Klucel (hydroxypropylcellulose) (HPC)
[11] = dose: 60.0 mg/kg/injection, schedule: Q01DX005 (ip), vehicle: saline with Tween-80
[12] = dose: 120.0 mg/kg/injection, schedule: Q01DX005 (ip), vehicle: saline with Tween-80
[13] = dose: 240.0 mg/kg/injection, schedule: Q01DX005 (ip), vehicle: saline with Tween-80
[14] = dose: 12.5 mg/kg/injection, schedule: Q01DX009 (ip), vehicle: saline
[15] = dose: 25.0 mg/kg/injection, schedule: Q01DX009 (ip), vehicle: saline
[16] = dose: 50.0 mg/kg/injection, schedule: Q01DX009 (ip), vehicle: saline
[17] = dose: 100.0 mg/kg/injection, schedule: Q04DX003 (ip), vehicle: saline with Tween-80
[18] = dose: 6.25 mg/kg/injection, schedule: Q01DX009 (ip), vehicle: saline

Measured: T/C

NC(Cc1ccc(OC(c2ccccc2)c2ccccc2)cc1)C(=O)O (stereo unspecified)
inactive: [1] 116 % of control | [2] 98 % of control | [3] 88 % of control | [4] 95 % of control | [5] 97 % of control

Cc1ccc(S(=O)(=O)NCCCCCCNS(=O)(=O)c2ccc(C)cc2)cc1
inactive: [6] 86 % of control and 90 % of control | [7] 89 % of control | [8] 86 % of control and 91 % of control

CC(=O)c1ccc2c3c(cccc13)C(=O)OC2=O
inactive: dose: 25.0 mg/kg/injection, schedule: Q01DX005 (ip), vehicle: Klucel (hydroxypropylcellulose) (HPC) 100 % of control | [6] 100 % of control and 101 % of control | [7] 102 % of control and 97 % of control | [8] 104 % of control

COc1ccc(/C=C2\C=C3OCOC3=CC2=O)cc1
inactive: dose: 2.5 mg/kg/injection, schedule: Q01DX009 (ip), vehicle: saline with Tween-80 100 % of control | dose: 5.0 mg/kg/injection, schedule: Q01DX009 (ip), vehicle: saline with Tween-80 100 % of control | dose: 10.0 mg/kg/injection, schedule: Q01DX009 (ip), vehicle: saline with Tween-80 100 % of control

Nc1cccc(CC(=O)Nc2ccccc2)c1
inactive: [9] 100 % of control | [10] 97 % of control

COc1cc(-c2coc3c4c(ccc3c2=O)OC(C)(C)C=C4)c(OC)c2c1OCO2
inactive: dose: 10.0 mg/kg/injection, schedule: Q01DX009 (ip), vehicle: other 111 % of control | dose: 20.0 mg/kg/injection, schedule: Q01DX009 (ip), vehicle: other 102 % of control | dose: 40.0 mg/kg/injection, schedule: Q01DX009 (ip), vehicle: other 123 % of control

N=C(N)C(Cl)(Cl)Cl
inactive: [1] 108 % of control | [2] 106 % of control | [3] 101 % of control and 106 % of control

CCOC(=O)C1C(c2ccc(C)cc2)C(C#N)C(=O)NC1(O)c1ccccc1 (stereo unspecified)
inactive: [9] 99 % of control | [10] 95 % of control | dose: 400.0 mg/kg/injection, schedule: Q04DX002 (ip), vehicle: Klucel (hydroxypropylcellulose) (HPC) 98 % of control

CC[C@H]1C[C@H]2CN(CCc3c([nH]c4ccccc34)[C@@](C(=O)OC)(c3cc4c(cc3OC)N(C=O)[C@H]3[C@@](O)(C(=O)OC)[C@H](OC(C)=O)[C@]5(CC)CCCN6CC[C@]43[C@@H]65)C2)C1
inactive: dose: 0.5 mg/kg/injection, schedule: Q01DX001 (ip), vehicle: water 109 % of control | dose: 1.0 mg/kg/injection, schedule: Q01DX001 (ip), vehicle: water 107 % of control | dose: 8.0 mg/kg/injection, schedule: Q01DX001 (ip), vehicle: water 119 % of control

COc1ccc([N+](=O)[O-])c2ccc(C(=O)O)nc12
inactive: dose: 50.0 mg/kg/injection, schedule: Q01DX005 (ip), vehicle: saline 103 % of control | dose: 100.0 mg/kg/injection, schedule: Q01DX005 (ip), vehicle: saline 97 % of control | dose: 200.0 mg/kg/injection, schedule: Q01DX005 (ip), vehicle: saline 110 % of control

CCC(O)(c1ccccc1)c1cnc(C)n1Cc1ccccc1 (stereo unspecified)
inactive: [11] 91 % of control | [12] 88 % of control | [13] 89 % of control

O=C(C[n+]1ccccc1)c1ccccc1
inactive: [14] 105 % of control | [15] 104 % of control | [16] 96 % of control

CC(=O)OCc1ccc(Cl)c(Cl)c1
inactive: [17] 100 % of control | dose: 200.0 mg/kg/injection, schedule: Q04DX003 (ip), vehicle: saline with Tween-80 100 % of control | dose: 400.0 mg/kg/injection, schedule: Q04DX003 (ip), vehicle: saline with Tween-80 104 % of control

CNc1ccc(F)cc1SSc1cc(F)ccc1NC
inactive: dose: 25.0 mg/kg/injection, schedule: Q01DX009 (ip), vehicle: Klucel (hydroxypropylcellulose) (HPC) 108 % of control | dose: 50.0 mg/kg/injection, schedule: Q01DX009 (ip), vehicle: Klucel (hydroxypropylcellulose) (HPC) 110 % of control | dose: 100.0 mg/kg/injection, schedule: Q01DX009 (ip), vehicle: Klucel (hydroxypropylcellulose) (HPC) 115 % of control

CCOC(=O)C1=C(C)N[C@@H](c2ccccc2[N+](=O)[O-])N[C@H]1c1ccccc1[N+](=O)[O-]
inactive: [6] 101 % of control | [7] 101 % of control | [8] 92 % of control

O=C1N(c2ccccc2)C(=Nc2ccccc2)C(=Nc2ccccc2)N1c1ccccc1
inactive: dose: 50.0 mg/kg/injection, schedule: Q01DX005 (ip), vehicle: Klucel + Tween-80 96 % of control | dose: 100.0 mg/kg/injection, schedule: Q01DX005 (ip), vehicle: Klucel + Tween-80 91 % of control | dose: 200.0 mg/kg/injection, schedule: Q01DX005 (ip), vehicle: Klucel + Tween-80 92 % of control

COc1cc(N(C)C)c(OC)cc1/C=C\c1ccnc2ccccc12
inactive: [17] 111 % of control

CC(c1ccccc1)n1ccnc1CO (stereo unspecified)
inactive: [11] 103 % of control | [12] 107 % of control | [13] 110 % of control

Cc1c2c(cc3c1[nH]c1ccccc13)C(=O)c1ccccc1C2=O
inactive: dose: 12.5 mg/kg/injection, schedule: Q01DX005 (ip), vehicle: saline with Tween-80 94 % of control | dose: 25.0 mg/kg/injection, schedule: Q01DX005 (ip), vehicle: saline with Tween-80 95 % of control | dose: 50.0 mg/kg/injection, schedule: Q01DX005 (ip), vehicle: saline with Tween-80 92 % of control and 94 % of control | dose: 200.0 mg/kg/injection, schedule: Q01DX005 (ip), vehicle: saline with Tween-80 87 % of control

CN1C(=O)C2(C)SSC1(C)C(=O)N2C
inactive: [18] 110 % of control | [14] 108 % of control | [15] 107 % of control

COc1cc2c(cc1NC(C)=O)C(=O)CCCC2
inactive: dose: 100.0 mg/kg/injection, schedule: Q01DX009 (ip), vehicle: saline + alcohol 107 % of control | dose: 200.0 mg/kg/injection, schedule: Q01DX009 (ip), vehicle: saline + alcohol 103 % of control | dose: 400.0 mg/kg/injection, schedule: Q01DX009 (ip), vehicle: saline + alcohol 110 % of control

Cc1cc(C)n(/C(N)=N/[N+](=O)[O-])n1
inactive: [16] 96 % of control | dose: 100.0 mg/kg/injection, schedule: Q01DX009 (ip), vehicle: saline 105 % of control | dose: 200.0 mg/kg/injection, schedule: Q01DX009 (ip), vehicle: saline 86 % of control

O=C(CBr)Nc1c(Cl)cc(Br)cc1Br
inactive: [18] 113 % of control | [14] 95 % of control | [15] 98 % of control | [4] 104 % of control | [5] 113 % of control

O=NN(CCF)C(=O)Oc1ccc([N+](=O)[O-])cc1
inactive: dose: 12.5 mg/kg/injection, schedule: Q01DX001 (ip), vehicle: Klucel (hydroxypropylcellulose) (HPC) 114 % of control | dose: 25.0 mg/kg/injection, schedule: Q01DX001 (ip), vehicle: Klucel (hydroxypropylcellulose) (HPC) 112 % of control

CC1CCC2(NC1)OC1CC3C4CCC5CC(OC6OC(CO)C(OC7OC(CO)C(O)C(OC8OCC(O)C(O)C8O)C7OC7OC(CO)C(O)C(O)C7O)C(O)C6O)CCC5(C)C4CCC3(C)C1C2C (stereo unspecified)
inactive: dose: 3.12 mg/kg/injection, schedule: Q04DX003 (ip), vehicle: Klucel (hydroxypropylcellulose) (HPC) 102 % of control | dose: 6.25 mg/kg/injection, schedule: Q04DX003 (ip), vehicle: Klucel (hydroxypropylcellulose) (HPC) 100 % of control | dose: 12.5 mg/kg/injection, schedule: Q04DX003 (ip), vehicle: Klucel (hydroxypropylcellulose) (HPC) 100 % of control and 91 % of control | dose: 50.0 mg/kg/injection, schedule: Q04DX003 (ip), vehicle: Klucel (hydroxypropylcellulose) (HPC) 89 % of control and 93 % of control

Cc1cc(NC(=O)NCCOc2ccc(N3C(N)=NC(N)=NC3(C)C)cc2Cl)ccc1S(=O)(=O)F
inactive: dose: 12.5 mg/kg/injection, schedule: Q04DX003 (ip), vehicle: saline sonified 100 % of control | dose: 25.0 mg/kg/injection, schedule: Q04DX003 (ip), vehicle: saline sonified 100 % of control | dose: 50.0 mg/kg/injection, schedule: Q04DX003 (ip), vehicle: saline sonified 100 % of control

O=C1C=C(NCc2ccccc2)CCC1
inactive: dose: 1.56 mg/kg/injection, schedule: Q01DX009 (ip), vehicle: saline 109 % of control | dose: 3.12 mg/kg/injection, schedule: Q01DX009 (ip), vehicle: saline 113 % of control | [18] 100 % of control

CCOC(=O)NNc1nc(-c2ccccc2)nc2nonc12
inactive: [2] 91 % of control | [4] 110 % of control

Reference: PubChem BioAssay AID330 (DTP/NCI, 2004)
